Data set [1] can be described thus: Stability of drug in elution media. The note with it: length of the study. In kind it is physicochemical. The procedure: The mobile phase preparation and choice of the column were instructed in the Dexamethasone Acetate monograph USP29-NF24. The mobile phase A consisted of pH 4.1 formate buffer and acetonitrile (3:2), and mobile phase B consisted of pH 4.1 formate buffer and acetonitrile (9:1). The chromatographic column (USP L11) used was an Agilent Zorbax SB-Phenyl, 4.6 mm×250 mm, 5 μm. A gradient was used with 1 mL/min flow rate. The run time was about 70 minutes. […] The injection volume for standard and samples was 100 μL.

For data set [2] the following is noted: 0.022 mg/mL.

The results in this text go back to patent US7790461B2, “Nano-emulsion technology for drug elution” (Medtronic MiniMed, Inc., priority 2007, dated 2010).

As to `CC(=O)OCC(=O)[C@@]1(O)[C@H](C)C[C@H]2[C@@H]3CCC4=CC(=O)C=C[C@]4(C)[C@@]3(F)[C@@H](O)C[C@@]21C` [Dexamethasone Acetate], the “stability in the media” value in data set [1] is “stable”. Besides, the “stability with respect to pH (order)” value in data set [2] is reported as “pH 3>pH 5≅acetate pH 5.7>water>pH 7>pH 9”.
